Patent US6168809A, “Alkaline-earth metal salt for the treatment of ocular or palpebral pruritus and dysesthesia” (Societe l'Oreal S.A., priority 1995, dated 2001)

Tests used:
[1] = system: TNF-alpha secretion by human monocytes (line U937); assay: inhibition of secretion of TNF-alpha induced by PMA in human monocytes (line U937); type: cell-based; conditions: for % inhibition of secretion of TNF-alpha induced by PMA: PMA 10 nM, 48 hours, 37° C., mean of 3 measurements; for inhibition of TNF-alpha: in words
Method: This test is performed on human monocytes (line U937) stimulated by a phorbol ester (PMA) according to the method described by Schindler et al. (Correlations and interactions in the production of interleukin-6 (IL-6), IL-1, and Tumor Necrosis Factor (TNF) in human blood mononuclear cells: IL-6 suppresses IL-1 and TNF. Blood 75: 40-47 (1990)).
The phorbol ester (PMA) naturally stimulates the synthesis and/or the secretion of TNF-alpha by human monocytes in culture.
The activity of the molecules is evaluated according to their capacity to reduce or even suppress this TNF-alpha secretion.
The cells (monocytes) are incubated in the presence of PMA at the concentration of 10 nM for 48 hours at 37° C. The quantities of TNF-alpha secreted are quantified by immunoenzymatic assay (ECA) with the aid of commercially available kits.
Each molecule is tested at 3 different concentrations (10^-5, 10^-4 and 10^-3 M) and in each experiment, a reference molecule (dexamethasone) is studied at 7 concentrations as internal standard.
The results are expressed as percentage of inhibition relative to the positive control (without test molecule) after subtracting the background noise. A recapitulative table groups together the mean inhibitory effects obtained with the compounds. (The results are expressed as % inhibition; they are the mean of 3 measurements).

release of substance P = release of substance P caused by antidromic stimulation of the sciatic nerve, visualized by Evans blue staining; type: in vivo
Excerpt: The test consisted in determining the activity of various compounds on the release of substance P, which is caused by antidromic stimulation of the sciatic nerve. This release is visualized by staining with a stain (Evans blue). The greater the quantity of substance P released, the more intense the colour. In other words, the greater the inhibitory effect of the substance P antagonist on this release, the less intense the colour.

Row | Structure (SMILES) | % inhibition of secretion of TNF-alpha induced by PMA ([1]; 10^-3 M) | % inhibition of secretion of TNF-alpha induced by PMA ([1]; 10^-4 M) | inhibition of TNF-alpha [1] | inhibitory activity on the release of substance P (release of substance P; Table 1, in words, salts at the same concentration) | inhibitory activity on the release of substance P (release of substance P; Table 2, in words, calcium salt at a higher concentration level) | % inhibition of secretion of TNF-alpha induced by PMA ([1]; 10^-5 M) | % inhibition relative to the control (release of substance P; Table 2, 3 μmol)
1 | [Cl-].[Cl-].[Mg+2] [Mg Cl2, magnesium chloride] | 70% | 12% | inhibitors of TNF-alpha |  |  |  | 
2 | [Cl-].[Cl-].[Sr+2] [SrCl2, strontium chloride] |  |  | inhibitors of TNF-alpha |  |  |  | 
3 | O=[N+]([O-])[O-].O=[N+]([O-])[O-].[Ca+2] [Ca(NO3)2, calcium nitrate] |  |  |  | no activity at all | no activity at all |  | 
4 | O.O.O.O.O.O.O.[Cl-].[Cl-].[Sr+2] [SrCl2 7H2O] | 54% |  |  |  |  | 14% | 
5 | [Ca+2].[Cl-].[Cl-] [CaCL2.7H2 O, calcium chloride] | 67% | 22% | inhibitors of TNF-alpha |  |  | 19% | 
6 | O=[N+]([O-])[O-].O=[N+]([O-])[O-].[Sr+2] [Sr(NO3)2, strontium nitrate] | 75% | 28% | inhibitors of TNF-alpha |  |  |  | 71%
